The record followed here is patent publication US20260001928A1 (CORTERIA PHARMACEUTICALS, priority 2022, published 2026).

Usually EC50 stands for the concentration needed to bring the measured effect to its halfway point. High values mean weaker potency, low ones greater potency.

*1 amine or outer side, *2 acyl side, *3 side chain or, on linkers, in order; H or OH if unused. Where a SMILES comes first, the peptide text is derived from it. Side-chain parts run from the residue outwards. [ ]: non-standard residue; d: D form. The star is where a group is joined. C20 diacid = O=C(O)CCCCCCCCCCCCCCCCCCC(=O)*; C18 diacid = O=C(O)CCCCCCCCCCCCCCCCC(=O)*; C16 diacid = O=C(O)CCCCCCCCCCCCCCC(=O)*; γGlu = O=C(O)[C@H](CCC(=O)[*:2])N[*:1]; NMeI = CC[C@H](C)[C@H](NC)C(=O)O; Decanoyl = CCCCCCCCCC(=O)*; AEEA = NCCOCCOCC(=O)O; Aib = CC(C)(N)C(=O)O Bounds are passed on as bounds.

The test system of the test is human LAD2 cells. It counts as cell-based. The method in brief: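 Mast cell degranulation: cells exposed to peptides for 30 min at final concentrations from 50, 100 or 300 down to 0.1 or 0.001 μM, with 0.5% DMSO where used, in biological duplicates. β-hexosaminidase release was read with a fluorogenic 4-methylumbelliferyl substrate as supernatant/(supernatant + Triton-lysed pellet) × 100. EC50 came from a 4-parameter sigmoidal fit.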

`CC[C@H](C)[C@H](NC)C(=O)N[C@H](C(=O)N[C@@H](CC(C)C)C(=O)N[C@@H](CO)C(=O)N[C@@H](CC(C)C)C(=O)N[C@@H](CC(=O)O)C(=O)N[C@@H](C(=O)N1CCC[C@H]1C(=O)N[C@H](C(=O)N[C@@H](CCCCN)C(=O)N[C@@H](CC(C)C)C(=O)N[C@@H](CCCCNC(=O)COCCOCCNC(=O)CC[C@H](NC(=O)CCCCCCCCCCCCCCCCCCC(=O)O)C(=O)O)C(=O)N[C@@H](CCCCN)C(=O)N[C@H](C(=O)N[C@@H](CC(C)C)C(=O)N[C@@H](CC(C)C)C(=O)N[C@@H](CCC(=O)O)C(=O)N[C@@H](CCC(N)=O)C(=O)N[C@@H](CCC(=O)O)C(=O)N[C@@H](CCCCN)C(=O)N[C@@H](CCC(N)=O)C(=O)N[C@@H](CCCCN)C(=O)NC(C)(C)C(=O)N[C@@H](CCC(N)=O)C(=O)N[C@@H](CCCNC(=N)N)C(=O)N[C@@H](CCC(=O)O)C(=O)N[C@@H](CCC(N)=O)C(=O)N[C@@H](C)C(=O)N[C@@H](CCC(=O)O)C(=O)N[C@H](C(=O)N[C@@H](CC(N)=O)C(=O)NC(C)(C)C(=O)N[C@@H](CCC(N)=O)C(=O)N[C@H](C(=O)N[C@@H](CC(C)C)C(=O)N[C@@H](C)C(=O)N[C@@H](CCC(N)=O)C(=O)N[C@H](C(N)=O)C(C)C)[C@@H](C)CC)[C@@H](C)O)[C@@H](C)CC)[C@@H](C)CC)C(C)C)C(C)C` [Cmpd 234] (H-[NMeI]VLSLD[dV]PIKLK([AEEA-γGlu-C20 diacid])KILLEQEKQK[Aib]QREQAETN[Aib]QILAQV-NH2) yielded an EC50 of 49.2 µM.

For the molecule `CC[C@H](C)[C@H](NC)C(=O)N[C@H](C(=O)N[C@@H](CC(C)C)C(=O)N[C@@H](CO)C(=O)N[C@@H](CC(C)C)C(=O)N[C@@H](CC(=O)O)C(=O)N[C@@H](C(=O)N1CCC[C@H]1C(=O)N[C@H](C(=O)N[C@@H](CCCCN)C(=O)N[C@@H](CC(C)C)C(=O)N[C@@H](CCCCNC(=O)CC[C@H](NC(=O)CCCCCCCCCCCCCCCCCCC(=O)O)C(=O)O)C(=O)N[C@@H](CCCCN)C(=O)N[C@H](C(=O)N[C@@H](CC(C)C)C(=O)N[C@@H](CC(C)C)C(=O)N[C@@H](CCC(=O)O)C(=O)N[C@@H](CCC(N)=O)C(=O)N[C@@H](CCC(=O)O)C(=O)N[C@@H](CCCCN)C(=O)N[C@@H](CCC(N)=O)C(=O)N[C@@H](CCCCN)C(=O)N[C@@H](C)C(=O)N[C@@H](CCC(N)=O)C(=O)N[C@@H](CCCNC(=N)N)C(=O)N[C@@H](CCC(=O)O)C(=O)N[C@@H](CCC(N)=O)C(=O)N[C@@H](C)C(=O)N[C@@H](CCC(=O)O)C(=O)N[C@H](C(=O)N[C@@H](CC(N)=O)C(=O)NC(C)(C)C(=O)N[C@@H](CCC(N)=O)C(=O)N[C@H](C(=O)N[C@@H](CC(C)C)C(=O)N[C@@H](C)C(=O)N[C@@H](CCC(N)=O)C(=O)N[C@H](C(N)=O)C(C)C)[C@@H](C)CC)[C@@H](C)O)[C@@H](C)CC)[C@@H](C)CC)C(C)C)C(C)C` [Cmpd 217] (H-[NMeI]VLSLD[dV]PIKLK([γGlu-C20 diacid])KILLEQEKQKAQREQAETN[Aib]QILAQV-NH2), the EC50 is > 300 µM.

For `CC[C@H](C)[C@H](NC)C(=O)N[C@H](C(=O)N[C@@H](CC(C)C)C(=O)N[C@@H](CO)C(=O)N[C@@H](CC(C)C)C(=O)N[C@@H](CC(=O)O)C(=O)N[C@@H](C(=O)N1CCC[C@H]1C(=O)N[C@H](C(=O)N[C@@H](CCCCN)C(=O)N[C@@H](CC(C)C)C(=O)N[C@@H](CCCCNC(=O)COCCOCCNC(=O)COCCOCCNC(=O)CC[C@H](NC(=O)CCCCCCCCCCCCCCCCC(=O)O)C(=O)O)C(=O)N[C@@H](CCCCN)C(=O)N[C@H](C(=O)N[C@@H](CC(C)C)C(=O)N[C@@H](CC(C)C)C(=O)N[C@@H](CCC(=O)O)C(=O)N[C@@H](CCC(N)=O)C(=O)N[C@@H](CCC(=O)O)C(=O)N[C@@H](CCCCN)C(=O)N[C@@H](CCC(N)=O)C(=O)N[C@@H](CCCCN)C(=O)N[C@@H](CCCCN)C(=O)N[C@@H](CCC(N)=O)C(=O)N[C@@H](CCCNC(=N)N)C(=O)N[C@@H](CCC(=O)O)C(=O)N[C@@H](CCC(N)=O)C(=O)N[C@@H](C)C(=O)N[C@@H](CCC(=O)O)C(=O)N[C@H](C(=O)N[C@@H](CC(N)=O)C(=O)NC(C)(C)C(=O)N[C@@H](CCC(N)=O)C(=O)N[C@H](C(=O)N[C@@H](CC(C)C)C(=O)N[C@@H](C)C(=O)N[C@@H](CCC(N)=O)C(=O)N[C@H](C(N)=O)C(C)C)[C@@H](C)CC)[C@@H](C)O)[C@@H](C)CC)[C@@H](C)CC)C(C)C)C(C)C` [Cmpd 118] (H-[NMeI]VLSLD[dV]PIKLK([AEEA-AEEA-γGlu-C18 diacid])KILLEQEKQKKQREQAETN[Aib]QILAQV-NH2), the EC50 was > 100 µM.

In the case of `CC[C@H](C)[C@H](NC(C)=O)C(=O)N[C@H](C(=O)N[C@@H](CC(C)C)C(=O)N[C@@H](CO)C(=O)N[C@@H](CC(C)C)C(=O)N[C@@H](CC(=O)O)C(=O)N[C@@H](C(=O)N1CCC[C@H]1C(=O)N[C@H](C(=O)N[C@@H](CCCCN)C(=O)N[C@@H](CC(C)C)C(=O)N[C@@H](CCCCNC(=O)CC[C@H](NC(=O)CC[C@H](NC(=O)CCCCCCCCCCCCCCCCCCC(=O)O)C(=O)O)C(=O)O)C(=O)N[C@@H](CCCCN)C(=O)N[C@H](C(=O)N[C@@H](CC(C)C)C(=O)N[C@@H](CC(C)C)C(=O)N[C@@H](CCC(=O)O)C(=O)N[C@@H](CCC(N)=O)C(=O)N[C@@H](CCC(=O)O)C(=O)N[C@@H](CCCCN)C(=O)N[C@@H](CCC(N)=O)C(=O)N[C@@H](CCCCN)C(=O)N[C@@H](CCC(=O)O)C(=O)N[C@@H](CCC(N)=O)C(=O)N[C@@H](CCCNC(=N)N)C(=O)N[C@@H](CCC(=O)O)C(=O)N[C@@H](CCC(N)=O)C(=O)N[C@@H](C)C(=O)N[C@@H](CCC(=O)O)C(=O)N[C@H](C(=O)N[C@@H](CC(N)=O)C(=O)NC(C)(C)C(=O)N[C@@H](CCC(N)=O)C(=O)N[C@H](C(=O)N[C@@H](CC(C)C)C(=O)N[C@@H](C)C(=O)N[C@@H](CCC(N)=O)C(=O)N[C@H](C(N)=O)C(C)C)[C@@H](C)CC)[C@@H](C)O)[C@@H](C)CC)[C@@H](C)CC)C(C)C)C(C)C` [Cmpd 241] (Ac-IVLSLD[dV]PIKLK([γGlu-γGlu-C20 diacid])KILLEQEKQKEQREQAETN[Aib]QILAQV-NH2), the 50% effective concentration (EC50) was > 300 µM.

For `CCCCCCCCCC(=O)N[C@H](C(=O)N[C@@H](CC(C)C)C(=O)N[C@@H](CO)C(=O)N[C@@H](CC(C)C)C(=O)N[C@@H](CC(=O)O)C(=O)N[C@@H](C(=O)N1CCC[C@H]1C(=O)N[C@H](C(=O)N[C@@H](CCCCN)C(=O)N[C@@H](CC(C)C)C(=O)N[C@@H](CCCCNC(=O)CC[C@H](NC(=O)CCCCCCCCCCCCCCCCCCC(=O)O)C(=O)O)C(=O)N[C@@H](CCCCN)C(=O)N[C@H](C(=O)N[C@@H](CC(C)C)C(=O)N[C@@H](CC(C)C)C(=O)N[C@@H](CCC(=O)O)C(=O)N[C@@H](CCC(N)=O)C(=O)N[C@@H](CCC(=O)O)C(=O)N[C@@H](CCCCN)C(=O)N[C@@H](CCC(N)=O)C(=O)N[C@@H](CCCCN)C(=O)N[C@@H](CCCCN)C(=O)N[C@@H](CCC(N)=O)C(=O)N[C@@H](CCCNC(=N)N)C(=O)N[C@@H](CCC(=O)O)C(=O)N[C@@H](CCC(N)=O)C(=O)N[C@@H](C)C(=O)N[C@@H](CCC(=O)O)C(=O)N[C@H](C(=O)N[C@@H](CC(N)=O)C(=O)NC(C)(C)C(=O)N[C@@H](CCC(N)=O)C(=O)N[C@H](C(=O)N[C@@H](CC(C)C)C(=O)N[C@@H](C)C(=O)N[C@@H](CCC(N)=O)C(=O)N[C@H](C(N)=O)C(C)C)[C@@H](C)CC)[C@@H](C)O)[C@@H](C)CC)[C@@H](C)CC)C(C)C)C(C)C` [Cmpd 223] (Decanoyl-VLSLD[dV]PIKLK([γGlu-C20 diacid])KILLEQEKQKKQREQAETN[Aib]QILAQV-NH2), the EC50 is > 300 µM.

`CC[C@H](C)[C@H](NC(C)=O)C(=O)N[C@H](C(=O)N[C@@H](CC(C)C)C(=O)N[C@@H](CO)C(=O)N[C@@H](CC(C)C)C(=O)N[C@@H](CC(=O)O)C(=O)N[C@@H](C(=O)N1CCC[C@H]1C(=O)N[C@H](C(=O)N[C@@H](CCCCN)C(=O)N[C@@H](CC(C)C)C(=O)N[C@@H](CCCCNC(=O)CC[C@H](NC(=O)CCCCCCCCCCCCCCC(=O)O)C(=O)O)C(=O)N[C@@H](CCCCN)C(=O)N[C@H](C(=O)N[C@@H](CC(C)C)C(=O)N[C@@H](CC(C)C)C(=O)N[C@@H](CCC(=O)O)C(=O)N[C@@H](CCC(N)=O)C(=O)N[C@@H](CCC(=O)O)C(=O)N[C@@H](CCCCN)C(=O)N[C@@H](CCC(N)=O)C(=O)N[C@@H](CCCCN)C(=O)NC(C)(C)C(=O)N[C@@H](CCC(N)=O)C(=O)N[C@@H](CCCNC(=N)N)C(=O)N[C@@H](CCC(=O)O)C(=O)N[C@@H](CCC(N)=O)C(=O)N[C@@H](C)C(=O)N[C@@H](CCC(=O)O)C(=O)N[C@H](C(=O)N[C@@H](CC(N)=O)C(=O)NC(C)(C)C(=O)N[C@@H](CCC(N)=O)C(=O)N[C@H](C(=O)N[C@@H](CC(C)C)C(=O)N[C@@H](C)C(=O)N[C@@H](CCC(N)=O)C(=O)N[C@H](C(N)=O)C(C)C)[C@@H](C)CC)[C@@H](C)O)[C@@H](C)CC)[C@@H](C)CC)C(C)C)C(C)C` [Cmpd 162] (Ac-IVLSLD[dV]PIKLK([γGlu-C16 diacid])KILLEQEKQK[Aib]QREQAETN[Aib]QILAQV-NH2): the concentration giving a half-maximal response (EC50) was > 50 µM.

For the molecule `CC[C@H](C)[C@H](NC(C)=O)C(=O)N[C@H](C(=O)N[C@@H](CC(C)C)C(=O)N[C@@H](CO)C(=O)N[C@@H](CC(C)C)C(=O)N[C@@H](CC(=O)O)C(=O)N[C@@H](C(=O)N1CCC[C@H]1C(=O)N[C@H](C(=O)N[C@@H](CCCCN)C(=O)N[C@@H](CC(C)C)C(=O)N[C@@H](CCCCNC(=O)CC[C@H](NC(=O)CCCCCCCCCCCCCCCCCCC(=O)O)C(=O)O)C(=O)N[C@@H](CCCCN)C(=O)N[C@H](C(=O)N[C@@H](CC(C)C)C(=O)N[C@@H](CC(C)C)C(=O)N[C@@H](CCC(=O)O)C(=O)N[C@@H](CCC(N)=O)C(=O)N[C@@H](CCC(=O)O)C(=O)N[C@@H](CCCCN)C(=O)N[C@@H](CCC(N)=O)C(=O)N[C@@H](CCCCN)C(=O)N[C@@H](C)C(=O)N[C@@H](CCC(N)=O)C(=O)N[C@@H](CCCNC(=N)N)C(=O)N[C@@H](CCC(=O)O)C(=O)N[C@@H](CCC(N)=O)C(=O)N[C@@H](C)C(=O)N[C@@H](CCC(=O)O)C(=O)N[C@H](C(=O)N[C@@H](CC(N)=O)C(=O)NC(C)(C)C(=O)N[C@@H](CCC(N)=O)C(=O)N[C@H](C(=O)N[C@@H](CC(C)C)C(=O)N[C@@H](C)C(=O)N[C@@H](CCC(N)=O)C(=O)N[C@H](C(N)=O)C(C)C)[C@@H](C)CC)[C@@H](C)O)[C@@H](C)CC)[C@@H](C)CC)C(C)C)C(C)C` [Cmpd 212] (Ac-IVLSLD[dV]PIKLK([γGlu-C20 diacid])KILLEQEKQKAQREQAETN[Aib]QILAQV-NH2), the EC50 was > 300 µM.
